Patent publication US7141170B2, “Halogenated solvent remediation” (North Wind, Inc., priority 2004, dated 2006)

Key:
[1] = Surface tension of electron donor solutions (pendant drop); assay type: physicochemical; conditions: for change in surface tension: 0% ethyl lactate
From the text: Two fundamental properties used to screen the co-solvent or surfactant properties of a solution are surface tension and interfacial tension. Surface tension measures the force per unit length along the interface between a liquid and air due to its tension. When a co-solvent or surfactant is present in an aqueous liquid at increasing concentrations, the surface tension of that liquid decreases. Interfacial tension is similar to surface tension except that it measures the force per unit length along the interface between two liquid phases arising from the surface free energy. The higher the interfacial tension between two liquids, the less likely one is to dissolve into the other, and the more difficult it is for one to be transported within the other. Thus, perhaps the most significant property of co-solvents and surfactants in the context of chlorinated solvent remediation is that they decrease the interfacial tension between the aqueous phase (groundwater) and the organic nonaqueous phase so that the solubility (or mobility for order-of-magnitude decreases) of the nonaqueous phase is enhanced. The laboratory study performed to confirm the co-solvent properties of the high concentration electron donor solution measured the surface tension of electron donor solutions at various concentrations. Next, interfacial tensions between the same electron donor solutions and nonaqueous phase TCE were measured. Two types of electron donor solutions were used. […] Surface and interfacial tension measurements were made using the pendant drop method (M. J. Rosen, ed., Structure/Performance Relationships in Surfactants, American Chemical Society, Washington […]. Arundel, The Profile Area of Pendant Drops, 82 J. Phys. Chem. 898 (1978)) coupled with real-time video imaging (M. D. Herd et al., Interfacial Tensions of Microbial Surfactants Determined by Real-Time Video Imaging of Pendant Drops, Proceedings paper number SPE/DOE 24206 513-519, SPE/DOE Eighth Symposium on Enhanced Oil Recovery, Tulsa, Okla. (1992)).

[2] = Field evaluation of enhanced in situ bioremediation at Test Area North (sodium lactate injection)
Experimental: A 1-year field evaluation of enhanced in situ bioremediation was performed at Test Area North (“TAN”) of the Idaho National Engineering and Environmental Laboratory. […] The locations of a 5,000 μg/L TCE isopleth (14); 1,000 μg/L TCE isopleth (16); 100 μg/L TCE isopleth (18); and 5 μg/L TCE isopleth (20) are shown by solid lines. FIG. 2 illustrates a cross section of this site, showing the surface of the ground (22), an approximately 63-m (210-feet) fractured basalt unsaturation zone (24) (not drawn to scale), an approximately 60-m (200-feet) fractured basalt aquifer (26), and an impermeable clay interbed (28). […]
The initial electron donor addition strategy involved continuous injection of potable water at 37.85 liters/minute (10 gpm) into Well TSF-05. […] It was determined that the continuous injection of clean water at 37.85 liters/minute (10 gpm) overwhelmed the flux of contaminants from the secondary source. […] This was intended to prevent significant quantities of electron donor from collecting in the injection well and to help prevent biofouling. […]
Eleven monitoring wells (i.e., TAN-D2, TAN-9, TAN-10A, TAN-25, TAN-26, TAN-27, TAN-28, TAN-29, TAN-30A, TAN-31, and TAN-37) were sampled biweekly and analyzed for electron donors, biological activity indicators, competing inorganic electron acceptors and their reduced products, chloroethenes, ethene, pH, temperature, and specific conductivity.

[3] = Interfacial tension between electron donor solutions and nonaqueous phase TCE (pendant drop); assay type: physicochemical; conditions: 0% ethyl lactate
From the text: Based on the field results presented in Example 1, laboratory studies were preformed to confirm that the enhanced bioavailability of TCE observed in the field was due to co-solvent or surfactant behavior resulting from the use of high concentrations of sodium lactate. Two fundamental properties used to screen the co-solvent or surfactant properties of a solution are surface tension and interfacial tension. Surface tension measures the force per unit length along the interface between a liquid and air due to its tension. When a co-solvent or surfactant is present in an aqueous liquid at increasing concentrations, the surface tension of that liquid decreases. Interfacial tension is similar to surface tension except that it measures the force per unit length along the interface between two liquid phases arising from the surface free energy. The higher the interfacial tension between two liquids, the less likely one is to dissolve into the other, and the more difficult it is for one to be transported within the other. […]
The laboratory study performed to confirm the co-solvent properties of the high concentration electron donor solution measured the surface tension of electron donor solutions at various concentrations. Next, interfacial tensions between the same electron donor solutions and nonaqueous phase TCE were measured. […]

[4] = system: TCE-dechlorinating culture derived from TAN-25 groundwater; experiment: Microcosm dechlorination and electron donor utilization study; assay type: cell-based
Experimental: Dechlorination studies were carried out to determine if whey powder solutions facilitate complete degradation of target contaminants at reasonable rates. Microcosms were constructed in triplicate sets. These microcosms were amended periodically with whey powder and TCE and analyzed monthly for TCE, its reductive degradation products, electron donor (as both COD and volatile fatty acids (VFAs)), redox, and pH.
An existing laboratory, sodium lactate-fed culture, derived from TAN-25 groundwater undergoing complete anaerobic reductive dechlorination (ARD) of TCE to ethene, was used to inoculate the cultures. Fresh TAN groundwater from the source area was also used to ensure that microbial populations that have been lost as a result of laboratory conditions were present for the evaluation. Serum vials (160 mL) were used as microcosms to grow the cultures. Prior to inoculation, the microcosms, along with all other culture-contact supplies, were autoclaved at 121° C. for 20 minutes and cooled to room temperature. Inoculation of the microcosms was done in a glove box containing nitrogen (95%), carbon dioxide (2.5%), and hydrogen (2.5%). Each microcosm was loaded with the inoculum, which comprised cells from the TCE-dechlorinating culture (1 L), cells from TAN-25 groundwater (1 L), and TAN-37 groundwater (2.5 L) as the media.
The culture cells were used to ensure a robust dechlorinating community was present, and cells were collected from TAN-25 groundwater to ensure the laboratory community was representative of the community at TAN. […] The cell pellets from the dechlorinating culture and TAN-25 groundwater were separated from the supernatant because both contained electron donors, including propionate, acetate, and lactate. TAN-37 groundwater was selected as the medium because it was anaerobic groundwater that contained little or no carbon (40 mg/L as COD with <2.5 ppm acetate and propionate) that might interfere with the evaluation of electron donor utilization. The inoculum mixture was then spiked with TCE (10 ppm), aliquoted (100 mL) into the microcosms, and each respective electron donor was added (˜200 ppm for all electron donors except whey powder [˜400 ppm]). The microcosms were then sealed with butyl-rubber septa and crimped. The headspace of each microcosm was flushed for 10 minutes with 100% nitrogen, and then an initial positive pressure of 5 psig was induced into each one. […] The test microcosms were prepared in triplicate and negative control microcosms were amended with whey powder and LactOil™/propionate. The study included a total of 20 microcosms.
Three months after inoculation, additional electron donor was added to all of the microcosms (200 to 300 mg/L as COD). […] At this point, approximately 50 mL of TAN-37 groundwater was also amended to all of the biotic microcosms to replace the volume lost because of sampling. This was done by placing all of the biotic microcosms into the anaerobic chamber containing nitrogen (95%), carbon dioxide (2.5%), and hydrogen (2.5%); removing the septum; adding TAN-37 groundwater and electron donor; and replacing septum and spiking each microcosm with a TCE stock solution. TCE was amended to all of the microcosms 4 and 6 months after inoculation.
Throughout these studies, the microcosms were monitored monthly for TCE, cis-DCE, trans-DCE, VC, ethene, ethane, methane, lactate, acetate, propionate, butyrate, pH, and Eh. […] Analytical samples (6 mL) were removed using a glass syringe (Hamilton Co., Reno, Nev.) and a 22-gauge sterile needle.

SMILES	effect on the solution's surface tension ([1]; addition of 1% and 10% ethyl lactate to the different sodium lactate solutions)	reductive dechlorination of TCE to ethene ([2]; all wells receiving significant lactate concentrations)	TCE concentrations deep in the aquifer soon after addition began ([2]; well TAN-26)	interfacial tension as % of the value at a sodium lactate concentration of 0.1% ([3]; sodium lactate 30%) [%]	decrease of interfacial tension ([3]; sodium lactate increased from 0.1 to 3%)	change in surface tension ([1]; sodium lactate concentration increased to 30 and 60%)	change in surface tension ([1]; sodium lactate concentrations from 0.01 to 7%)	accumulated cis-DCE, average concentration ([4]; 1 month after inoculation) [ppb]	methane accumulated, average ([4]; between 6 and 7 months) [µM]	methane concentration generated ([4]; in 3 months)	TCE remaining ([4]; one month after TCE re-addition, only ethene present)	TCE remaining ([4]; three months after inoculation, only ethene detected)	ethene production as share of amended TCE ([4]; two months after inoculation) [%]
CCOC(=O)C(C)O (stereo not shown) [ethyl lactate]	pronounced effect												
CC(O)C(=O)[O-].[Na+] (stereo not shown) [sodium lactate]		Enhanced reductive dechlorination of TCE to ethene was observed	dramatic increase	47	about 26%	dramatic decrease	almost no change	75	21	approximately 50 μM	all of the TCE was gone	all of the TCE was gone	10
